# Tested on: ethanol-induced ulcer
# Assay: Anti-ulcer activities, ethanol-induced ulcer
# Format: in vivo
# Conditions: po, 1 h; rat, perorally, dose 10 μg/kg, 30 min before ethanol
# Method: 1. Anti-ulcer activities, Ethanol-induced ulcer
# Inhibitory effects of ethanol-induced ulcer are determined by the method of A. Robert (Gastroenterology 77, 433-43). Rats are fasted for 24 hrs. and are given 1 ml of absolute ethanol perorally. 1 hour after administration of ethanol, the stomach of the rat is removed. The length of each ulcer occurring in the grandulor stomach is determined and each ulcer in one rat is acounted as ulcer-index. The test compounds are given perorally 30 minutes before ethanol administration.
row,Structure (SMILES),inhibition in vivo at 0.01 mg/kg
1,"O=C(O)CCCC=C1C[C@H]2C[C@@H](O)[C@H](/C=C/[C@@H](O)C3COc4ccccc4O3)[C@H]2C1 (stereo partly drawn) [Compound 5, 15α-Hydroxy-15-(benzodioxane-2-yl)-carbacyclin]",71.9%
2,"CC1([C@H](O)/C=C/[C@@H]2[C@H]3CC(CCOCC(=O)O)=C[C@H]3C[C@H]2O)Cc2ccccc2C1 [Compound 41, 15α-Hydroxy-15-(2-methylindan-2-yl)-3-oxa-isocarbacyclin]",64.2%
3,"O=C(O)COCCC1=C[C@H]2C[C@@H](O)[C@H](/C=C/[C@@H](O)C3COc4ccccc4O3)[C@H]2C1 (stereo partly drawn) [Compound 45, 15α-Hydroxy-15-(1,4-benzodioxane-2-yl)-3-oxa-isocarbacyclin]",58.9%

# Same assay, conditions: po, 1 h; rat, perorally, dose 30 μg/kg, 30 min before ethanol
row,Structure (SMILES),inhibition in vivo at 0.03 mg/kg
1,"O=C(O)COCC=C1C[C@H]2C[C@@H](O)[C@H](/C=C/[C@@H](O)C3Cc4ccccc4C3)[C@H]2C1 [Compound 35, 15α-Hydroxy-15-(indan-2-yl)-3-oxa-carbacyclin]",44.6%
2,"O=C(O)CCCC=C1C[C@H]2C[C@@H](O)[C@H](C#C[C@@H](O)C3Cc4ccccc4C3)[C@H]2C1 [Compound 3, 13,14-Dehydro-15α-hydroxy-15-(indan-2-yl)-carbacyclin]",93.4%
3,"CC1([C@H](O)/C=C/[C@@H]2[C@H]3CC(=CCOCC(=O)O)C[C@H]3C[C@H]2O)Cc2ccccc2C1 [Compound 33, 15α-Hydroxy-15-(2-methylindan-2-yl)-3-oxa-carbacyclin]",47.6%
4,"COc1ccc2c(c1)OCC([C@H](O)/C=C/[C@@H]1[C@H]3CC(=CCCCC(=O)O)C[C@H]3C[C@H]1O)O2 (stereo partly drawn) [Compound 11, 15α-Hydroxy-15-(6-methoxybenzodioxane-2-yl)-carbacyclin]",82.1%

# Same assay, conditions: po, 1 h; rat, perorally, dose 100 μg/kg, 30 min before ethanol
row,Structure (SMILES),inhibition in vivo at 0.1 mg/kg
1,"O=C(O)COCCC1=C[C@H]2C[C@@H](O)[C@H](/C=C/[C@@H](O)C3Cc4ccccc4C3)[C@H]2C1 [Compound 43, 15α-Hydroxy-15-(indan-2-yl)-3-oxa-isocarbacyclin]",51.8%
2,"CC1([C@H](O)/C=C/[C@@H]2[C@H]3CC(=CCCCC(=O)O)C[C@H]3C[C@H]2O)COc2ccccc2O1 (stereo partly drawn) [Compound 17, 15β-Hydroxy-15-(2-methylbenzodioxane-2-yl)-carbacyclin]",72.6%
3,"O=C(O)CCCC=C1C[C@H]2C[C@@H](O)[C@H](/C=C/[C@@H](O)c3ccc4c(c3)OCCO4)[C@H]2C1 [Compound 1, 15α-Hydroxy-15-(benzodioxane-6-yl)-carbacyclin]",41.6%
4,"O=C(O)CCCC=C1C[C@H]2C[C@@H](O)[C@H](/C=C/[C@@H](O)C3Cc4ccccc4C3)[C@H]2C1 [Compound 7, 15α-Hydroxy-15-(indan-2-yl)-carbacyclin]",68.7%
5,"O=C(O)COCC=C1C[C@H]2C[C@@H](O)[C@H](/C=C/[C@@H](O)C3COc4ccccc4O3)[C@H]2C1 (stereo partly drawn) [Compound 37, 15α-Hydroxy-15-(1,4-benzodioxane-2-yl)-3-oxa-carbacyclin]",51.6%

# Same assay, conditions: po, 1 h; rat, perorally, dose 300 μg/kg, 30 min before ethanol
row,Structure (SMILES),inhibition in vivo at 0.3 mg/kg
1,"O=C(O)CCCC=C1C[C@H]2C[C@@H](O)[C@H](/C=C/[C@@H](O)C3Cc4ccc([N+](=O)[O-])cc4C3)[C@H]2C1 (stereo partly drawn) [Compound 23, 15α-Hydroxy-15-(5-nitroindan-2-yl)-carbacyclin]",98.9%
2,"Cc1ccc2c(c1)OCC([C@H](O)/C=C/[C@@H]1[C@H]3CC(=CCCCC(=O)O)C[C@H]3C[C@H]1O)O2 (stereo partly drawn) [Compound 9, 15α-Hydroxy-15-(6-methylbenzodioxane-2-yl)-carbacyclin]",80.6%

# Tested on: not listed separately
# Assay: Stability test in buffer solutions, by thin layer chromatography
# Format: physicochemical
# Conditions: pH 7.4, room temperature, 2 months
# Method: About 1.5 mg of test compound was dissolved in a drop of methanol and diluted in each 1.5 ml of a buffer solution *adjusted to pH 5.2, 7.2, 7.4, 9.2, respectively. Stability test was carried out at 37° C. in the case of pH 5.2, 7.2, 9.2 and at room temperature in the case of pH 7.4,.
# Using a thin layer chromatography as the identification method, the test solution in each buffer solution of pH 5.2, 7.2, 7.4 was extracted with ethyl acetate and in the case of the test solution of […], it was diluted with water, acidified at pH 4 with 10% HCl and extracted with ethyl acetate.
# *pH 5.2 (0.2M Pottasium hydrogen phthalate)
row,Structure (SMILES),Stability (change in thin layer chromatography)
1,"O=C(O)CCCC=C1C[C@H]2C[C@@H](O)[C@H](/C=C/[C@@H](O)C3COc4ccccc4O3)[C@H]2C1 (stereo partly drawn) [Compound 5, 15α-Hydroxy-15-(benzodioxane-2-yl)-carbacyclin]",No change

# Source: US4730060A, “Carbacyclin derivatives, method of manufacturing the same and therapeutic agents containing these compounds” (Kotobuki Seiyaku Co. Ltd., priority 1986, dated 1988)
